System: hypertriglyceridemic patients with cardiovascular disease or at high risk for cardiovascular disease
Assay: REDUCE-IT: subgroup analyses of the primary and key secondary endpoints
Type: in vivo, human
Conditions: for Primary endpoint, patients with event (%) / Time to primary endpoint, HR (95% CI) AMR101/Placebo: ITT
Description: Exploratory Subgroup Analyses: Analyses of the effects that patients off study drug and withdrawn from study have on the primary endpoint were performed. Subgroup analyses of the primary and key secondary endpoints were performed as described for the primary endpoint. For each subgroup, Kaplan-Meier estimates, the log-rank test stratified by stratification factors used at randomization (except where the subgroup was a stratification factor), and HRs and CIs from the Cox proportional hazards model as specified for the primary efficacy endpoint, were summarized by treatment group. Demographic, disease, treatment, and baseline lipid and lipoproteins parameters were explored.
Demographic parameters included: Gender; age at baseline (<65 years and ≥65 years); race (white and nonwhite, or any other subset with at least 10% of the total number of patients); geographical region (Westernized, Eastern European, and Asia Pacific countries); and baseline ezetimibe use (yes/no).
Disease parameters included: CV risk category; the presence/absence of diabetes at baseline; and renal dysfunction at baseline (estimated glomerular filtration rate [eGFR]<60 mL/min/1.73 m^2) using the Chronic Kidney Disease Epidemiology Collaboration (CKD-EPI) equation as follows: eGFR=141×min(Scr/κ,1)^α×max(Scr/κ,1)^[…]^Age×1.018 [if female]×1.159 [if black]
Treatment Parameters included: Statin intensity at baseline (statin type and regimen); and statin intensity categories as defined in ACC/AHA Cholesterol Guidelines (Stone 2013) and patient's 10-year CV Risk Score (Goff 2013).
Baseline Lipid and Lipoprotein Parameter included: LDL-C (by tertile); HDL-C (by tertile, and tertile by gender); TG (by tertile, and tertile by gender); RLP-C (by tertile); TG ≥150 mg/dL and TG <150 mg/dL; TG ≥200 mg/dL and TG <200 mg/dL; TG ≥median, TG <median; combined highest tertile for TG and lowest tertile for HDL-C; gender-specific highest tertile for TG and lowest tertile for HDL-C; TG ≥200 mg/dL with HDL-C ≤35 mg/dL; hsCRP (≤3 mg/L and >3 mg/L) and by gender; hsCRP (≤2 mg/L and >2 mg/L) and by gender; Apo B (by tertile); non-HDL-C (by tertile); baseline hemoglobin A1c (Hb1c) value (<6.5%, ≥6.5%); baseline PAD; and baseline TG levels ≥150 mg/dL with high-density lipoprotein cholesterol (HDL-C) levels ≤40 mg/dL for males and ≤50 mg/dL for females.
A Cox proportional hazard (PH) model as mentioned above but additionally with baseline TG as a covariate were fitted to the data at each interim. Diagnostic plots for the PH assumption were evaluated. The consistency of the treatment effects in subgroups was assessed for the primary and key secondary efficacy endpoints. For each subgroup variable, a Cox PH model with terms for treatment, stratification factors (with the exception of those subgroup variables related to the stratification factors, i.e., CV risk category), subgroup, and treatment-by-subgroup interaction were performed. The main treatment effect was tested with this model. P-values for testing the interaction terms <0.15 were considered significant. Results were presented in a Forest plot.
Subgroup analyses of the primary and key secondary endpoints were performed as described for the primary endpoint. For each subgroup, Kaplan-Meier estimates, the log-rank test stratified by stratification factors used at randomization (except where the subgroup was a stratification factor), and HRs and CIs from the Cox proportional hazards model as specified for the primary efficacy endpoint, were summarized by treatment group. All subgroup analyses were conducted for the ITT, mITT and PP populations.
Of note regarding the following subgroup analyses, per study design, subgroup analyses are underpowered to detect statistically significant results within each individual subgroup, particularly when a subgroup represents less than 50% of the enrolled population, and when a subgroup has low event rates. […]

[1] = Overall (Males and Females), TG Lowest Tertile (≥81.25 to ≤190 mg/dL)
[2] = Overall (Males and Females), TG Middle Tertile (>190 to ≤250 mg/dL)
[3] = RLP-C (Derived) Highest Tertile (>34.30 to ≤105.86 mg/dL)
[4] = RLP-C (Derived) Lowest Tertile (≥11.89 to ≤28.09 mg/dL)
[5] = RLP-C (Derived) Middle Tertile (>28.09 to ≤34.30 mg/dL)
[6] = TG Lower Half (≥81.25 and ≤216 mg/dL)
[7] = TG Upper Half (>216 and ≤1401 mg/dL)
[8] = above or at the median baseline TG (>216 mg/dL)
[9] = baseline TG <150 mg/dL and HDL-C >40 mg/dL (males) or >50 mg/dL (females)
[10] = baseline TG ≥150 mg/dL and HDL-C ≤40 mg/dL (males) or ≤50 mg/dL (females)
[11] = below the median baseline TG (≥81.25 and ≤216 mg/dL)
[12] = females, middle tertile baseline TG (>186 to ≤241.5 mg/dL)
[13] = highest tertile baseline HDL-C (>43.5 to ≤107.5 mg/dL)
[14] = highest tertile baseline RLP-C (>34.30 to ≤105.86 mg/dL)
[15] = highest tertile baseline TG (>250 to ≤401 mg/dL)
[16] = highest tertile baseline TG and lowest tertile baseline HDL-C
[17] = history of peripheral artery disease
[18] = lowest tertile baseline HDL-C (≥17 to ≤36.5 mg/dL)
[19] = lowest tertile baseline RLP-C (≥11.89 to ≤28.09 mg/dL)
[20] = lowest tertile baseline TG (≥81.25 to ≤190 mg/dL)
[21] = middle tertile baseline HDL-C (>36.5 to ≤43.5 mg/dL)
[22] = middle tertile baseline RLP-C (>28.09 to ≤34.30 mg/dL)
[23] = middle tertile baseline TG (>190 to ≤250 mg/dL)
[24] = not in the highest tertile baseline TG and lowest tertile baseline HDL-C
[25] = primary prevention subgroup (CV risk category 2)
[26] = secondary prevention subgroup (CV risk category 1)
[27] = without atherogenic dyslipidemia
[28] = without history of peripheral artery disease

CC/C=C\C/C=C\C/C=C\C/C=C\C/C=C\CCCC(=O)OCC [AMR101, eicosapentaenoic acid ethyl ester]
Primary endpoint, patients with event (%) [1]: 16.9%
Time to primary endpoint, HR (95% CI) AMR101/Placebo [1]: 0.789
Primary endpoint, patients with event (%) [2]: 18.0%
Time to primary endpoint, HR (95% CI) AMR101/Placebo [2]: 0.804
Primary endpoint, patients with event (%) (PAD History - No): 16.3%
Time to primary endpoint, HR (95% CI) AMR101/Placebo (PAD History - No): 0.744
Primary endpoint, patients with event (%) (PAD History - Yes): 26.6%
Time to primary endpoint, HR (95% CI) AMR101/Placebo (PAD History - Yes): 0.803
Primary endpoint, patients with event (%) [3]: 17.8%
Time to primary endpoint, HR (95% CI) AMR101/Placebo [3]: 0.715
Primary endpoint, patients with event (%) [4]: 17.1%
Time to primary endpoint, HR (95% CI) AMR101/Placebo [4]: 0.806
Primary endpoint, patients with event (%) [5]: 16.8%
Time to primary endpoint, HR (95% CI) AMR101/Placebo [5]: 0.750
Primary endpoint, patients with event (%) [6]: 17.3%
Time to primary endpoint, HR (95% CI) AMR101/Placebo [6]: 0.803
Primary endpoint, patients with event (%) [7]: 17.2%
Time to primary endpoint, HR (95% CI) AMR101/Placebo [7]: 0.709
Primary endpoint event, patients (US patients): 18.2%
Primary endpoint, HR (US patients): 0.687
Primary endpoint event, patients [8]: 17.2%
Primary endpoint, HR [8]: 0.709
Primary endpoint event, patients (atherogenic dyslipidemia (baseline TG ≥200 mg/dL and HDL-C ≤35 mg/dL)): 18.1%
Primary endpoint event, patients (baseline HbA1c <6.5%): 16.5%
Primary endpoint, HR (baseline HbA1c <6.5%): 0.793
Primary endpoint event, patients (baseline HbA1c ≥6.5%): 18.1%
Primary endpoint, HR (baseline HbA1c ≥6.5%): 0.701
Primary endpoint event, patients [9]: 18.2%
Primary endpoint, HR [9]: 0.842
Primary endpoint event, patients [10]: 16.5%
Primary endpoint, HR [10]: 0.691
Primary endpoint event, patients (baseline hsCRP >2 mg/L): 19.2%
Primary endpoint, HR (baseline hsCRP >2 mg/L): 0.813
Primary endpoint event, patients (baseline hsCRP ≤2 mg/L): 15.0%
Primary endpoint, HR (baseline hsCRP ≤2 mg/L): 0.680
Primary endpoint event, patients [11]: 17.3%
Primary endpoint, HR [11]: 0.803
Primary endpoint event, patients [12]: 15.1%
Primary endpoint, HR [12]: 1.077
Primary endpoint event, patients [13]: 15.9%
Primary endpoint, HR [13]: 0.812
Primary endpoint event, patients [14]: 17.8%
Primary endpoint, HR [14]: 0.715
Primary endpoint event, patients [15]: 16.9%
Primary endpoint, HR [15]: 0.675
Primary endpoint event, patients [16]: 19.1%
Primary endpoint, HR [16]: 0.670
Primary endpoint event, patients [17]: 26.6%
Primary endpoint, HR [17]: 0.803
Primary endpoint event, patients [18]: 18.1%
Primary endpoint, HR [18]: 0.667
Primary endpoint event, patients [19]: 17.1%
Primary endpoint, HR [19]: 0.806
Primary endpoint event, patients [20]: 16.9%
Primary endpoint, HR [20]: 0.789
Primary endpoint event, patients [21]: 17.6%
Primary endpoint, HR [21]: 0.800
Primary endpoint event, patients [22]: 16.8%
Primary endpoint, HR [22]: 0.750
Primary endpoint event, patients [23]: 18.0%
Primary endpoint, HR [23]: 0.804
Primary endpoint event, patients (non-US patients): 16.7%
Primary endpoint, HR (non-US patients): 0.803
Key secondary endpoint event, patients (non-white patients): 10.3%
Key secondary endpoint, HR (non-white patients): 0.554
Primary endpoint event, patients [24]: 16.3%
Primary endpoint, HR [24]: 0.679
Key secondary endpoint, point estimate of the HR (patients on statins of low intensity at baseline): 1.200
Primary endpoint event, patients [25]: 12.2%
Primary endpoint, HR [25]: 0.876
Primary endpoint event, patients [26]: 19.3%
Primary endpoint, HR [26]: 0.726
Key secondary endpoint event, patients (white patients): 11.3%
Key secondary endpoint, HR (white patients): 0.758
Primary endpoint event, patients [27]: 17.0%
Primary endpoint, HR [27]: 0.791
Primary endpoint event, patients [28]: 16.3%
Primary endpoint, HR [28]: 0.744
Key secondary endpoint event, patients (≥65 years subgroup): 13.9%
Key secondary endpoint, HR (≥65 years subgroup): 0.824
Primary endpoint event, patients (≥65 years subgroup): 20.6%
Primary endpoint, HR (≥65 years subgroup): 0.873
